Reference: patent publication US12083105B2, “Compositions and methods for treating adult-onset neuronal ceroid lipofuscinosis (Kufs disease)” (CORNELL UNIVERSITY, priority 2020, dated 2024)

Legend:
[1] = test system: CSPα^L115R and CSPα^L116Δ; test: CSPα oligomerization and palmitoylation in CSPα−/− primary cortical neurons expressing ANCL mutants (SDS-PAGE, quantitative immunoblotting); type: cell-based, mice; conditions: 200 μM, 72 h, FIG. 3D; for oligomerization of CSPα^L115R and CSPα^L116Δ: vs vehicle (0.1% DMSO); for palmitoylation of CSPα^L115R and CSPα^L116Δ: vs vehicle
SNAP-25 [2] = test: Total SNAP-25 levels in ANCL iNs (quantitative immunoblotting); type: cell-based, human; conditions: 72 h, compared to vehicle only control, FIG. 7B
Description: (§1) ANCL patient-derived fibroblasts were treated with 200 μM of L1 or Dfx, or vehicle (0.1% DMSO=Control) for 72 h, before measuring the UV-Vis absorbance spectra of immunoprecipitated CSPα eluted by trypsinization (solid lines). Spectra were re-read after 10 min of 0.1 N HCl treatment (dashed lines). The experiments shown in FIGS. 7B-7I, were conducted using ANCL fibroblasts converted to iNs using BAM+ND1 technique. […] Quantitative immunoblotting was used to measure levels of oligomerized and fully palmitoylated CSPα as well as total SNAP-25. Oligo=oligomers; Palm=palmitoylated. […] The interaction of CSPα with SNAP-25 in ANCL iNs was measured by immunoprecipitating SNAP-25 followed by quantitative immunoblotting of co-immunoprecipitated CSPα (normalized to SNAP-25 IP). Note that mainly CSPα monomers and not oligomers were detected bound to SNAP-25. Control=control sham IP without IgG. […] Turnover of SNAP-25 was determined by cycloheximide chase, while maintaining the iron-chelators or vehicle in the medium. […] In the experiments shown in FIGS. 7E-7G, ANCL iNs treated with L1, Dfx, or vehicle for 56 d and analyzed. […] The levels of lipofuscin were determined by ELISA. In the experiments shown in FIGS. 7H-7I 56 day old untreated ANCL iNs were treated with L1, Dfx, or vehicle, and analyzed. […]

SNAP-25 [3] = test: SNAP-25 turnover in ANCL iNs by cycloheximide chase; type: cell-based, human; conditions: 72 h pretreatment, cycloheximide chase in presence of chelator, FIG. 7D
Description: as §1

Compound	oligomerization of CSPα^L115R and CSPα^L116Δ [1]	palmitoylation of CSPα^L115R and CSPα^L116Δ [1]	SNAP-25 levels (SNAP-25 [2])	turnover of SNAP-25 (SNAP-25 [3])
CC(=O)N(O)CCCCCNC(=O)CCC(=O)N(O)CCCCCNC(=O)CCC(=O)N(O)CCCCCN [Dfx, N′-[5-(Acetyl-hydroxy-amino)pentyl]-N-[5-[3-(5-aminopentyl-hydroxy-carbamoyl)propanoylamino]pentyl]-N-hydroxy-butane diamide]	reduced the oligomerization	improved	augmented	decreased turnover
Cc1c(O)c(=O)ccn1C [L1, 3-hydroxy-1,2-dimethyl-4(1H)-pyridone]	reduced the oligomerization	improved	augmented	decreased turnover
